According to ChEMBL document CHEMBL1126470, “Toward developing peptidomimetics: Successful replacement of backbone amide bonds in tetrapeptide-based CCK-A receptor agonists” (Bioorg Med Chem Lett, 1993):

Columns and labels:
Cavia porcellus = organism: Cavia porcellus; test: Compound was evaluated for its ability to stimulate PI hydrolysis in guinea pig pancreas relative to maximal response elicited by CCK-8; format: functional
[1] = biological target: T1, Cholecystokinin receptor type A (Cavia porcellus, UniProt Q63931); test: Displacement of [125I]Bolton-Hunter-CCK-8 from guinea pig pancreas Cholecystokinin type A receptor
T1 sequence (Q63931 whole entry): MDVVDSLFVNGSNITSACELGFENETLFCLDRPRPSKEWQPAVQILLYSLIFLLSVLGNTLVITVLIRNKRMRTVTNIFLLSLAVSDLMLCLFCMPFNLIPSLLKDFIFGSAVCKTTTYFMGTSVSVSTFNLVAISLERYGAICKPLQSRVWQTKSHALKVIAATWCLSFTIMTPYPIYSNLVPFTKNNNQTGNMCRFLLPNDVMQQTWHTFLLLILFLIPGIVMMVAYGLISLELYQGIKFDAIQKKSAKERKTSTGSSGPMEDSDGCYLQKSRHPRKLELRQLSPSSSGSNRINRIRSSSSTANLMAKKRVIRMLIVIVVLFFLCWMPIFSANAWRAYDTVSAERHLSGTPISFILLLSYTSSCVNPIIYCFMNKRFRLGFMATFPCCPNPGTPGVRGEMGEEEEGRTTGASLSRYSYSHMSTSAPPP

With `Cc1ccccc1NC(=O)NCCCC[C@H](NC(=O)[C@H](Cc1c[nH]c2ccccc12)NC(=O)OC(C)(C)C)C(=O)N[C@H](CNN[C@@H](Cc1ccccc1)C(N)=O)CC(=O)O` the Max response (Cavia porcellus) was 6.3% and the IC50 [1] was 300 nM.
Work on `CC(C)(C)OC(=O)N[C@@H](Cc1c[nH]c2ccccc12)C(=O)N[C@@H](CCCCNC(=O)/C=C\c1ccc(O)cc1)C(=O)N[C@H](CNN[C@@H](Cc1ccccc1)C(N)=O)CC(=O)O` yielded a Max response (Cavia porcellus) of 0% and an IC50 [1] of 130 nM.
`CN(C(=O)[C@H](CC(=O)O)NNC[C@H](CCCCNC(=O)/C=C\c1ccc(O)cc1)NC(=O)[C@H](Cc1c[nH]c2ccccc12)NC(=O)OC(C)(C)C)[C@@H](Cc1ccccc1)C(N)=O` showed a Max response (Cavia porcellus) of 28% and an IC50 [1] of 250 nM.
For `CC(C)(C)OC(=O)N[C@@H](Cc1c[nH]c2ccccc12)C(=O)N[C@@H](CCCCNC(=O)/C=C\c1ccc(O)cc1)CNN[C@@H](CC(=O)O)C(=O)N[C@@H](Cc1ccccc1)C(N)=O`, the Max response (Cavia porcellus) was 44% and the IC50 [1] was 40 nM.
Molecule `Cc1ccccc1NC(=O)NCCCC[C@@H](CNN[C@@H](CC(=O)O)C(=O)N(C)[C@@H](Cc1ccccc1)C(N)=O)NC(=O)[C@H](Cc1c[nH]c2ccccc12)NC(=O)OC(C)(C)C` has a Max response (Cavia porcellus) of 0% and an IC50 [1] of 1600 nM.
`CC(C)(C)OC(=O)N[C@H](CNN[C@@H](CCCCNC(=O)/C=C/c1ccc(O)cc1)C(=O)N[C@@H](CC(=O)O)C(=O)N[C@@H](Cc1ccccc1)C(N)=O)Cc1c[nH]c2ccccc12` was tested, and the Max response (Cavia porcellus) was 5.6% and the IC50 [1] was 930 nM.
With `Cc1ccccc1NC(=O)NCCCC[C@H](NNC[C@H](Cc1c[nH]c2ccccc12)NC(=O)OC(C)(C)C)C(=O)N[C@@H](CC(=O)O)C(=O)N[C@@H](Cc1ccccc1)C(N)=O` the Max response (Cavia porcellus) was 8.9% and the IC50 [1] was 470 nM.
`CSCC[C@H](NC(=O)[C@H](Cc1c[nH]c2ccccc12)NC(=O)OC(C)(C)C)C(=O)N[C@@H](CC(=O)O)C(=O)N[C@@H](Cc1ccccc1)C(N)=O` showed a Max response (Cavia porcellus) of 100%.
Work on `CSCC[C@H](NC(=O)[C@H](Cc1ccc(OS(=O)(=O)O)cc1)NC(=O)[C@@H](N)CC(=O)O)C(=O)NCC(=O)N[C@@H](Cc1c[nH]c2ccccc12)C(=O)N[C@@H](CCSC)C(=O)N[C@@H](CC(=O)O)C(=O)N[C@@H](Cc1ccccc1)C(N)=O` [SINCALIDE] yielded a Max response (Cavia porcellus) of 100%.
